In the assay the test system is Influenza A virus. Put plainly: Antiviral activity against Influenza A virus (A/WSN/33/London (H1N1)) in MDCK cells after 72 hrs by neutral red dye uptake assy. It is filed as functional, organism-based.

This note sets out measurements from ChEMBL document CHEMBL1146222, “Cyclic depsipeptides, ichthyopeptins A and B, from Microcystis ichthyoblabe” (J Nat Prod, 2007).

Structures are written as SMILES. In brackets after ≈: the same amount, converted by molar mass.

One may read the IC50 as the midpoint of a concentration-inhibition curve. Turning to `NC12CC3CC(CC(C3)C1)C2` [AMANTADINE], the midpoint of inhibition, the IC50, lay at 15 µg/mL (≈ 99.2 µM).
